# Data: ChEMBL document CHEMBL1154382, “Preliminary SAR analysis of novel antiproliferative N(6),5'-bis-ureidoadenosine derivatives” (2009)
# Columns and labels:
# Type in all cases: functional
# Settings in all cases: values are per cent of control
# [1] = test system: ACHN; test: Antiproliferative activity against human ACHN cells at 10 uM assessed as cell growth inhibition relative to control
# [2] = test system: OVCAR-3; test: Antiproliferative activity against human OVCAR-3 cells at 10 uM assessed as cell growth inhibition relative to control
# [3] = test system: Malme-3M; test: Antiproliferative activity against human MALME-3M cells at 10 uM assessed as cell growth inhibition relative to control
# [4] = test system: TK-10; test: Antiproliferative activity against human TK10 cells at 10 uM assessed as cell growth inhibition relative to control
# [5] = test system: M14; test: Antiproliferative activity against human M14 cells at 10 uM assessed as cell growth inhibition relative to control
# [6] = test system: SNB-75; test: Antiproliferative activity against human SNB75 cells at 10 uM assessed as cell growth inhibition relative to control
# [7] = test system: DU-145; test: Antiproliferative activity against human DU145 cells at 10 uM assessed as cell growth inhibition relative to control
# [8] = test system: HCC 2998; test: Antiproliferative activity against human HCC2998 cells at 10 uM assessed as cell growth inhibition relative to control
# [9] = test system: OVCAR-8; test: Antiproliferative activity against human OVCAR8 cells at 10 uM assessed as cell growth inhibition relative to control
# [10] = test system: SK-MEL-28; test: Antiproliferative activity against human SK-MEL-28 cells at 10 uM assessed as cell growth inhibition relative to control
# [11] = test system: NCI-H23; test: Antiproliferative activity against human NCI-H23 cells at 10 uM assessed as cell growth inhibition relative to control
# [12] = test system: CAKI-1; test: Antiproliferative activity against human Caki1 cells at 10 uM assessed as cell growth inhibition relative to control
# [13] = test system: HT-29; test: Antiproliferative activity against human HT-29 cells at 10 uM assessed as cell growth inhibition relative to control
# [14] = test system: NCI-H226; test: Antiproliferative activity against human NCI-H226 cells at 10 uM assessed as cell growth inhibition relative to control
# [15] = test system: SNB-19; test: Antiproliferative activity against human SNB19 cells at 10 uM assessed as cell growth inhibition relative to control
# [16] = test system: MOLT-4; test: Antiproliferative activity against human MOLT4 cells at 10 uM assessed as cell growth inhibition relative to control
# [17] = test system: BT-549; test: Antiproliferative activity against human BT549 cells at 10 uM assessed as cell growth inhibition relative to control
# [18] = test system: K562; test: Antiproliferative activity against human K562 cells at 10 uM assessed as cell growth inhibition relative to control
# [19] = test system: SN12C; test: Antiproliferative activity against human SN12C cells at 10 uM assessed as cell growth inhibition relative to control
# [20] = test system: SK-OV-3; test: Antiproliferative activity against human SKOV3 cells at 10 uM assessed as cell growth inhibition relative to control
# [21] = test system: NCI-H460; test: Antiproliferative activity against human NCI-H460 cells at 10 uM assessed as cell growth inhibition relative to control
# [22] = test system: COLO 205; test: Antiproliferative activity against human COLO205 cells at 10 uM assessed as cell growth inhibition relative to control
# [23] = test system: SW-620; test: Antiproliferative activity against human SW620 cells at 10 uM assessed as cell growth inhibition relative to control
# [24] = test system: EKVX; test: Antiproliferative activity against human EKVX cells at 10 uM assessed as cell growth inhibition relative to control
# [25] = test system: NCI-H522; test: Antiproliferative activity against human NCI-H522 cells at 10 uM assessed as cell growth inhibition relative to control
# [26] = test system: SF-539; test: Antiproliferative activity against human SF539 cells at 10 uM assessed as cell growth inhibition relative to control
# [27] = test system: HOP-62; test: Antiproliferative activity against human HOP62 cells at 10 uM assessed as cell growth inhibition relative to control
# [28] = test system: PC-3; test: Antiproliferative activity against human PC3 cells at 10 uM assessed as cell growth inhibition relative to control
# [29] = test system: UO-31; test: Antiproliferative activity against human UO31 cells at 10 uM assessed as cell growth inhibition relative to control
# [30] = test system: A549; test: Antiproliferative activity against human A549 cells at 10 uM assessed as cell growth inhibition relative to control
# [31] = Antiproliferative activity against human Hs 578T cells at 10 uM assessed as cell growth inhibition relative to control
# [32] = test system: NCI-H322M; test: Antiproliferative activity against human NCI-H322M cells at 10 uM assessed as cell growth inhibition relative to control
# [33] = test system: IGROV-1; test: Antiproliferative activity against human IGROV1 cells at 10 uM assessed as cell growth inhibition relative to control
# [34] = test system: KM12; test: Antiproliferative activity against human KM12 cells at 10 uM assessed as cell growth inhibition relative to control
# [35] = test system: U-251; test: Antiproliferative activity against human U251 cells at 10 uM assessed as cell growth inhibition relative to control
# [36] = test system: HL-60(TB); test: Antiproliferative activity against human HL-60(TB) cells at 10 uM assessed as cell growth inhibition relative to control
# [37] = test system: LOX IMVI; test: Antiproliferative activity against human LOXIMVI cells at 10 uM assessed as cell growth inhibition relative to control
# [38] = test system: RXF 393; test: Antiproliferative activity against human RXF393 cells at 10 uM assessed as cell growth inhibition relative to control
# [39] = Antiproliferative activity against human […] cells at 10 uM assessed as cell growth inhibition relative to control
# [40] = test system: HCT-116; test: Antiproliferative activity against human HCT116 cells at 10 uM assessed as cell growth inhibition relative to control
# [41] = test system: UACC-62; test: Antiproliferative activity against human UACC62 cells at 10 uM assessed as cell growth inhibition relative to control
# [42] = test system: 786-0; test: Antiproliferative activity against human 786-0 cells at 10 uM assessed as cell growth inhibition relative to control
# [43] = test system: SF-268; test: Antiproliferative activity against human SF268 cells at 10 uM assessed as cell growth inhibition relative to control
# [44] = test system: SF-295; test: Antiproliferative activity against human SF295 cells at 10 uM assessed as cell growth inhibition relative to control
# [45] = test system: OVCAR-4; test: Antiproliferative activity against human OVCAR4 cells at 10 uM assessed as cell growth inhibition relative to control
# [46] = test system: MDA-MB-231; test: Antiproliferative activity against human MDA-MB-231 cells at 10 uM assessed as cell growth inhibition relative to control
# [47] = test system: OVCAR-5; test: Antiproliferative activity against human OVCAR5 cells at 10 uM assessed as cell growth inhibition relative to control
# [48] = test system: HCT-15; test: Antiproliferative activity against human HCT15 cells at 10 uM assessed as cell growth inhibition relative to control
# [49] = test system: SK-MEL-2; test: Antiproliferative activity against human SK-MEL-2 cells at 10 uM assessed as cell growth inhibition relative to control
# [50] = test system: UACC-257; test: Antiproliferative activity against human UACC257 cells at 10 uM assessed as cell growth inhibition relative to control
# [51] = test system: CCRF-CEM; test: Antiproliferative activity against human CCRF-CEM cells at 10 uM assessed as cell growth inhibition relative to control
# [52] = test system: HOP-92; test: Antiproliferative activity against human HOP92 cells at 10 uM assessed as cell growth inhibition relative to control
# [53] = test system: SK-MEL-5; test: Antiproliferative activity against human SK-MEL-5 cells at 10 uM assessed as cell growth inhibition relative to control
# [54] = test system: MCF7; test: Antiproliferative activity against human MCF7 cells at 10 uM assessed as cell growth inhibition relative to control
# [55] = test system: MDA-MB-468; test: Antiproliferative activity against human MDA-MB-468 cells at 10 uM assessed as cell growth inhibition relative to control
# [56] = test system: T47D; test: Antiproliferative activity against human T47D cells at 10 uM assessed as cell growth inhibition relative to control
smiles,measurement,setting,value
CNC(=O)NC[C@H]1O[C@@H](n2cnc3c(NC(=O)Nc4ccccc4)ncnc32)[C@H](O[Si](C)(C)C(C)(C)C)[C@@H]1O[Si](C)(C)C(C)(C)C,"growth, % of control at 10 µM",[1],21%
same,"growth, % of control at 10 µM",[2],-29%
same,"growth, % of control at 10 µM",[3],49%
same,"growth, % of control at 10 µM",[4],34%
same,"growth, % of control at 10 µM",[5],33%
same,"growth, % of control at 10 µM",[6],46%
same,"growth, % of control at 10 µM",[7],52%
same,"growth, % of control at 10 µM",[8],-1%
same,"growth, % of control at 10 µM",[9],33%
same,"growth, % of control at 10 µM",[10],60%
same,"growth, % of control at 10 µM",[11],36%
same,"growth, % of control at 10 µM",[12],60%
same,"growth, % of control at 10 µM",[13],-68%
same,"growth, % of control at 10 µM",[14],49%
same,"growth, % of control at 10 µM",[15],76%
same,"growth, % of control at 10 µM",[16],24%
same,"growth, % of control at 10 µM",[17],40%
same,"growth, % of control at 10 µM",[18],34%
same,"growth, % of control at 10 µM",[19],-79%
same,"growth, % of control at 10 µM",[20],78%
same,"growth, % of control at 10 µM",[21],-7%
same,"growth, % of control at 10 µM",[22],-100%
same,"growth, % of control at 10 µM",[23],36%
same,"growth, % of control at 10 µM",[24],23%
same,"growth, % of control at 10 µM",[25],46%
same,"growth, % of control at 10 µM",[26],33%
same,"growth, % of control at 10 µM",[27],62%
same,"growth, % of control at 10 µM",[28],8%
same,"growth, % of control at 10 µM",[29],48%
same,"growth, % of control at 10 µM",[30],23%
same,"growth, % of control at 10 µM",[31],61%
same,"growth, % of control at 10 µM",[32],87%
same,"growth, % of control at 10 µM",[33],53%
same,"growth, % of control at 10 µM",[34],-4%
same,"growth, % of control at 10 µM",[35],17%
same,"growth, % of control at 10 µM",[36],24%
same,"growth, % of control at 10 µM",[37],13%
same,"growth, % of control at 10 µM",[38],-37%
same,"growth, % of control at 10 µM",[39],20%
same,"growth, % of control at 10 µM",[40],0%
same,"growth, % of control at 10 µM",[41],42%
same,"growth, % of control at 10 µM",[42],17%
same,"growth, % of control at 10 µM",[43],36%
same,"growth, % of control at 10 µM",[44],45%
same,"growth, % of control at 10 µM",[45],30%
same,"growth, % of control at 10 µM",[46],38%
same,"growth, % of control at 10 µM",[47],69%
same,"growth, % of control at 10 µM",[48],21%
same,"growth, % of control at 10 µM",[49],57%
same,"growth, % of control at 10 µM",[50],43%
same,"growth, % of control at 10 µM",[51],43%
same,"growth, % of control at 10 µM",[52],-3%
same,"growth, % of control at 10 µM",[53],48%
same,"growth, % of control at 10 µM",[54],0%
same,"growth, % of control at 10 µM",[55],36%
same,"growth, % of control at 10 µM",[56],14%
